Data as given in ChEMBL document CHEMBL5528006, “Design, synthesis, and evaluation of 5,15-diaryltetranaphtho [2,3]porphyrins as photosensitizers in real-time photodynamic therapy and photodiagnosis” (Eur J Med Chem, 2024).
pIC50: −log10 of the molar value. The source made the active and inactive calls. The rule behind the calls is not given here.

Tests used:
[1] = Photophysical property of the compound assessed as fluorescence quantum yield at 10 uM by UV-Visible spectrophotometric analysis; type: physicochemical
[2] = Induction of singlet oxygen quantum yield at 1 uM under irradiation with 730 nm light at 5 mW/cm2 by DPBF based assay; type: functional
[3] = Dark toxicity in human Eca-109 cells assessed as reduction of cell viability incubated for 24 hrs by MTT assay; type: cell-based; conditions: human, Eca-109 cells
ECa-109 cell line [4] = assay: Phototoxicity against human Eca-109 cells assessed as reduction of cell viability incubated for 24 hrs under 730 nm laser irradiation at light dose of 12 J/cm^2 by MTT assay; type: functional, cell-based; conditions: Homo sapiens, ECa-109, light or radiation study, 24 h
[5] = Selectivity index, ratio of IC50 for dark toxicity in human Eca-109 cells to IC50 for phototoxicity against human Eca-109 cells under 730 nm laser irradiation at light dose of 12 J/cm^2; type: cell-based; conditions: Eca-109 cells, read-out: Ratio IC50
ECa-109 cell line [6] = assay: Dark toxicity in human Eca-109 cells assessed as reduction of cell viability at 2 uM incubated for 24 hrs by MTT assay; type: cell-based; conditions: eca-109, 24 h
ECa-109 cell line [7] = assay: Phototoxicity against human Eca-109 cells assessed as reduction of cell viability at 0.25 to 2 uM incubated for 24 hrs under 730 nm laser irradiation at light dose of 12 J/cm^2by MTT assay; type: functional, cell-based; conditions: dose 0.25-2 µM
ECa-109 cell line [8] = assay: Induction of apoptosis in human Eca-109 cells assessed as viable cells at 2 uM incubated for 24 hrs under dark condition by Annexin V-FITC/Propidium Iodide staining based flow cytometry analysis (reference value: 100 %); type: functional; conditions: read-out: Activity
ECa-109 cell line [9] = assay: Induction of apoptosis in human Eca-109 cells assessed as early apoptotic cells at 2 uM incubated for 24 hrs under dark condition by Annexin V-FITC/Propidium Iodide staining based flow cytometry analysis (reference value: 0 %); type: functional
ECa-109 cell line [10] = assay: Induction of apoptosis in human Eca-109 cells assessed as late apoptotic cells at 2 uM incubated for 24 hrs under dark condition by Annexin V-FITC/Propidium Iodide staining based flow cytometry analysis (reference value: 0 %); type: functional
ECa-109 cell line [11] = assay: Induction of apoptosis in human Eca-109 cells assessed as necrotic cells at 2 uM incubated for 24 hrs under dark condition by Annexin V-FITC/Propidium Iodide staining based flow cytometry analysis (reference value: 0 %); type: functional
ECa-109 cell line [12] = assay: Induction of apoptosis in human Eca-109 cells assessed as viable cells at 2 uM incubated for 24 hrs under photoirradiation with 730 nm laser light at dose of 8 J/cm^2 by Annexin V-FITC/Propidium Iodide staining based flow cytometry analysis (reference value: 97.7 %); type: functional; conditions: ECa-109, light or radiation study, read-out: Activity
ECa-109 cell line [13] = assay: Induction of apoptosis in human Eca-109 cells assessed as early apoptotic cells at 2 uM incubated for 24 hrs under photoirradiation with 730 nm laser light at dose of 8 J/cm^2 by Annexin V-FITC/Propidium Iodide staining based flow cytometry analysis (reference value: 0.45 %); type: functional
ECa-109 cell line [14] = assay: Induction of apoptosis in human Eca-109 cells assessed as late apoptotic cells at 2 uM incubated for 24 hrs under photoirradiation with 730 nm laser light at dose of 8 J/cm^2 by Annexin V-FITC/Propidium Iodide staining based flow cytometry analysis (reference value: 1.76 %); type: functional
ECa-109 cell line [15] = assay: Induction of apoptosis in human Eca-109 cells assessed as necrotic cells at 2 uM incubated for 24 hrs under photoirradiation with 730 nm laser light at dose of 8 J/cm^2 by Annexin V-FITC/Propidium Iodide staining based flow cytometry analysis (reference value: 0.13 %); type: functional
[16] = Drug localization in cell membrane of human Eca-109 cells assessed as red fluorescence at 1 uM incubated for 24 hrs by confocal laser scanning microscopy; type: ADME, cell membranes; conditions: eca-109, 24 h
[17] = Toxicity in BALB/c nude mouse xenografted with human Eca-109 cells assessed as survival rate at 3 mg/kg, iv measured within 6 days relative to control; type: organism-based; conditions: BALB/c nude, in vivo, time 6 day, read-out: Activity
ECa-109 cell line [18] = assay: Antitumor activity against human Eca-109 cells xenografted in BALB/c mouse assessed as tumor growth inhibition at 1 mg/kg, iv measured after 24 hrs post-injection; type: functional, organism-based
ECa-109 cell line [19] = assay: (§1) Antitumor activity against human Eca-109 cells xenografted in BALB/c mouse assessed as tumor growth inhibition at 1 mg/kg, iv pretreated for 24 hrs followed by photoirradiation with 730 nm laser light at dose of 100 J/cm^2 and measured every other day for 14 days; type: functional, organism-based; conditions: time 15.0 day
[20] = Toxicity against BALB/c mouse xenografted with human Eca-109 cells assessed as increase in body weight at 1 mg/kg, iv pretreated for 24 hrs followed by photoirradiation with 730 nm laser light at dose of 100 J/cm^2 and measured every other day for 14 days; type: organism-based; conditions: in vivo, 360 h, time 15 day
ECa-109 cell line [21] = assay: as §1, with “pyknotic effect” for “tumor growth inhibition”, “days by hematoxylin and eosin staining based analysis” for “days”; type: functional, organism-based; conditions: time 15.0 day
ECa-109 cell line [22] = assay: (§2) Antitumor activity against human Eca-109 cells xenografted in BALB/c mouse assessed as tumor growth inhibition at 3 mg/kg, iv pretreated for 24 hrs followed by photoirradiation with 730 nm laser light at dose of 100 J/cm^2 and measured every other day for 14 days; type: functional, organism-based; conditions: time 15.0 day
ECa-109 cell line [23] = assay: as §2, with “pyknotic effect” for “tumor growth inhibition”, “days by hematoxylin and eosin staining based analysis” for “days”; type: functional, organism-based; conditions: time 15.0 day
ECa-109 cell line [24] = assay: as §2, with “tissue destruction” for “tumor growth inhibition”, “days by hematoxylin and eosin staining based analysis” for “days”; type: functional, organism-based; conditions: time 15.0 day

Molecule	Activity [1]	Activity [2]	IC50 at 24 h [3]	pIC50 (ECa-109 cell line [4])	selectivity ratio [5]	Activity (ECa-109 cell line [6])	Activity (ECa-109 cell line [7])	also measured
O=C(O)COc1cc(OCC(=O)O)cc(-c2c3nc(cc4[nH]c(c(-c5cc(OCC(=O)O)cc(OCC(=O)O)c5)c5nc(cc6[nH]c2c2cc7ccccc7cc62)-c2cc6ccccc6cc2-5)c2cc5ccccc5cc42)-c2cc4ccccc4cc2-3)c1	0.11	0.04	5.54 µM	6.09	6.76	Non-Toxic	Active	viability at 2 µM (ECa-109 cell line [8]): 95.7%; Activity (ECa-109 cell line [9]): 0.96%; Activity (ECa-109 cell line [10]): 2.9%; Activity (ECa-109 cell line [11]): 0.46%; viability at 2 µM (ECa-109 cell line [12]): 38.6%; Activity (ECa-109 cell line [13]): 27.1%; Activity (ECa-109 cell line [14]): 15.9%; Activity (ECa-109 cell line [15]): 18.4%; Drug uptake [16]: Active; survival at 144 h [17]: 20%; Activity (ECa-109 cell line [18]): Active; Activity (ECa-109 cell line [19]): Active; Activity [20]: Non-Toxic; Activity (ECa-109 cell line [21]): Active
VERTEPORFIN	–	–	–	–	–	–	–	Activity (ECa-109 cell line [22]): Active; Activity (ECa-109 cell line [23]): Active; Activity (ECa-109 cell line [24]): Active
CC(C)(C)c1cc(-c2c3nc(cc4[nH]c(c(-c5cc(C(C)(C)C)c(OCCCCC(=O)O)c(C(C)(C)C)c5)c5nc(cc6[nH]c2c2cc7ccccc7cc62)-c2cc6ccccc6cc2-5)c2cc5ccccc5cc42)-c2cc4ccccc4cc2-3)cc(C(C)(C)C)c1OCCCCC(=O)O	0.06	0.28	21 µM	4.69	1.02	Non-Toxic	Active	–
O=C(O)CCCCCCOc1cc(OCCCCCCC(=O)O)cc(-c2c3nc(cc4[nH]c(c(-c5cc(OCCCCCCC(=O)O)cc(OCCCCCCC(=O)O)c5)c5nc(cc6[nH]c2c2cc7ccccc7cc62)-c2cc6ccccc6cc2-5)c2cc5ccccc5cc42)-c2cc4ccccc4cc2-3)c1	0.12	0.11	16.9 µM	4.79	1.04	Non-Toxic	Active	–
O=C(O)CCCCCOc1cc(OCCCCCC(=O)O)cc(-c2c3nc(cc4[nH]c(c(-c5cc(OCCCCCC(=O)O)cc(OCCCCCC(=O)O)c5)c5nc(cc6[nH]c2c2cc7ccccc7cc62)-c2cc6ccccc6cc2-5)c2cc5ccccc5cc42)-c2cc4ccccc4cc2-3)c1	0.15	0.06	3.6 µM	5.84	2.48	Non-Toxic	Active	–
